We go through one compound from patent publication US8206690B2, “Oral health composition” (Mars Incorporated, priority 2006, dated 2012).

What all share (type): cell-based, dogs
Test [1] concerns biofilms representative of canine dental plaque. Kind of test: Canine plate biofilm assay (PBA): biomass quantification (crystal violet assay). As to conditions: 48 hours, extracts at 500 μg/ml, OD595 vs no active controls. Here is the method:
(§1) The assay requires fresh supragingival canine dental plaque and saliva for inoculation. The inoculum consists of pooled dental plaque and unfiltered saliva sampled from a group of 14 dogs, varying in age, breed and oral health status.
(§2) The plaque and saliva were resuspended in artificial saliva to form the inoculum of approximately 15% plaque and 30% saliva.
(§3) The plate biofilm assay (PBA) utilises a 24 well plate format in which biofilms, representative of canine dental plaque, are grown on hydroxyapatite (HA) discs. Prior to being introduced to the 24 well assay plate, each HA disc is preconditioned for 2 hours in a solution of 50% filter sterilised canine saliva in artificial canine saliva. The preconditioning step stimulates the formation of a salivary pellicle on the HA disc surface. […] Each HA disc, with the exception of those being used for biomass quantification, is placed into 500 μl PBS and vortex mixed for 30 seconds to remove biofilm growth from the disc into solution. […] Biofilm-covered HA discs that are being used for biomass quantification are removed from the 24 well assay plate and used directly in the crystal violet assay.
The total amount of biofilm grown on the HA discs was quantified using the crystal violet staining method. Biomass was represented as being directly proportional to the OD reading at 595 nm (OD595) of the samples compared to controls. […]

Test [2] concerns Trypsin-like protease activity. Kind of test: Canine plate biofilm assay (PBA): protease activity (liquid BAPNA assay). As to conditions: 48 hours, extracts at 500 μg/ml, vs controls. The method, then: as §1, §2, §3
Trypsin-like protease activity was measured using the liquid BAPNA assay, a colourimetric assay in which the amount of trypsin present in a sample is directly proportional to the intensity of the colour developed. […]

For a further test, the system named is Aerobes. Briefly: Canine plate biofilm assay (PBA): bacterial viable counts, aerobes. As to conditions: extracts at 500 μg/ml, counted after 2 days, vs controls. Here is the method: as §1, §2
as §3, with “saliva.” for “saliva. The preconditioning step stimulates the formation of a salivary pellicle on the HA disc surface.”
(§4) Viable numbers of bacteria were quantified using Columbia blood agar plates supplemented with haemin and menadione. Aerobes were counted after incubation for 2 days and anaerobes, including black pigmenting colonies (BPC), were counted after incubation at appropriate conditions for 9 days. […]

The subject of a further test is anaerobes. Kind of test: Canine plate biofilm assay (PBA): bacterial viable counts, anaerobes. Conditions: extracts at 500 μg/ml, counted after 9 days, vs controls. Here is the method:
as §1, §2
as §3, with “saliva.” for “saliva. The preconditioning step stimulates the formation of a salivary pellicle on the HA disc surface.”
as §4

Test [3] deals with black pigmenting colonies (BPC). Kind of test: Canine plate biofilm assay (PBA): bacterial viable counts, black pigmenting colonies. Conditions: extracts at 500 μg/ml, counted after 9 days, vs controls. Here is the method: as §1, §2
as §3, with “saliva.” for “saliva. The preconditioning step stimulates the formation of a salivary pellicle on the HA disc surface.”
as §4

With `[H]/N=C(\N/C(=N/[H])NCCCCCCNC(=N)NC(=N)Nc1ccc(Cl)cc1)Nc1ccc(Cl)cc1` [Chlorhexidine, chlorhexidine], in test [1], the “Biomass (% reduction)” value was 94.40%. Also, the “Protease (% reduction)” value in test [2] is given as 95.76%. In addition, in the test on Aerobes, the “Aerobe (log 10 reduction)” value was 2.87 log 10 reduction. Further, the “Anaerobe (Log 10 reduction)” value in the test with anaerobes stood at 2.48 Log 10 reduction. For the same compound, the “BPC (Log 10 reduction)” value in test [3] came to 2.74 Log 10 reduction.
